For the experiment, the system named is HBV viral production from HepAD38 cells. The experiment can be described thus: Activity of test compounds on viral production from HepAD38 cells (viral load by qPCR of HBV core sequence in supernatant). The class given is cell-based. The settings on record: Hepatitis B virus, 120 h, 5 days incubation, HBV DNA in supernatant by qPCR, top concentration 10 μM, read-out: Viral Load EC50 Activity range. Summed up: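 HepAD38 cells, 50,000/well in tetracycline-free 2% FBS medium, treated 5 days at 37° C. with compound from 10 μM top concentration. HBV DNA in supernatant quantified by TaqMan qPCR of core sequence against DNA standards, relative to DMSO wells; CellTiter-Glo viability read in parallel. EC50/CC50 from four-parameter logistic fit.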
Regarding `CN1[C@H](C(=O)Nc2ccc(F)c(Cl)c2)C[C@H](c2ncc(-c3ccccn3)s2)NS1(=O)=O` [HBV-CSU-176-ISO-I, Cis-N-(3-chloro-4-fluorophenyl)-2-methyl-5-(5-(pyridin-2-yl)thiazol-2-yl)-1,2,6-thiadiazinane-3-carboxamide 1,1-dioxide], the EC50 is less than 1000 nM.

For the compound `O=C(Nc1ccc(F)c(Cl)c1)C1CC(c2nccs2)NS(=O)(=O)N1CCOC(F)(F)F` (racemic) [HBV-CSU-072, Cis-N-(3-Chloro-4-fluorophenyl)-5-(thiazol-2-yl)-2-(2-(trifluoromethoxy)ethyl)-1,2,6-thiadiazinane-3-carboxamide 1,1-dioxide], the EC50 was less than 1000 nM.

`CN1C(C(=O)Nc2cccc(Br)c2)CC(c2cccs2)NS1(=O)=O` (stereo not drawn) [HBV-CSU-017, Cis-N-(3-Bromophenyl)-2-methyl-5-(thiophen-2-yl)-1,2,6-thiadiazinane-3-carboxamide 1,1-dioxide]: the EC50 was less than 1000 nM.

In the case of `Cc1c(-c2ccc([C@H]3C[C@@H](C(=O)Nc4ccc(F)c(Cl)c4)N(C)S(=O)(=O)N3)s2)cnn1C` [HBV-CSU-312-ISO-I, Cis-N-(3-chloro-4-fluorophenyl)-5-(5-(1,5-dimethyl-1H-pyrazol-4-yl)thiophen-2-yl)-2-methyl-1,2,6-thiadiazinane-3-carboxamide 1,1-dioxide], the EC50 was less than 1000 nM.

On to `CN1C(C(=O)Nc2ccc(F)c(Cl)c2)CC(c2cc(-c3cncn3C)cs2)NS1(=O)=O` (racemic) [HBV-CSU-285, Cis-N-(3-Chloro-4-fluorophenyl)-2-methyl-5-(4-(1-methyl-1H-imidazol-5-yl)thiophen-2-yl)-1,2,6-thiadiazinane-3-carboxamide 1,1-dioxide], for which the EC50 is less than 1000 nM.

As for `CN1[C@H](C(=O)Nc2ccc(F)c(Cl)c2)C[C@H](c2cc(-c3ccnn3C)cs2)NS1(=O)=O` (relative stereo) [HBV-CSU-289-ISO-I, Cis-N-(3-chloro-4-fluorophenyl)-2-methyl-5-(4-(1-methyl-1H-pyrazol-5-yl)thiophen-2-yl)-1,2,6-thiadiazinane-3-carboxamide 1,1-dioxide], the EC50 is less than 1000 nM.

As to `CN1C(C(=O)Nc2ccc(F)c(Cl)c2)CC(c2cc(-c3nncn3C)cs2)NS1(=O)=O` (racemic) [HBV-CSU-328, Cis-N-(3-chloro-4-fluorophenyl)-2-methyl-5-(4-(4-methyl-4H-1,2,4-triazol-3-yl)thiophen-2-yl)-1,2,6-thiadiazinane-3-carboxamide 1,1-dioxide], the EC50 was less than 1000 nM.

Regarding `CSCCN1[C@H](C(=O)Nc2ccc(F)c(Cl)c2)C[C@H](c2nccs2)NS1(=O)=O` [HBV-CSU-109-ISO-II, Cis-N-(3-Chloro-4-fluorophenyl)-2-(2-(methylthio)ethyl)-5-(thiazol-2-yl)-1,2,6-thiadiazinane-3-carboxamide 1,1-dioxide], the EC50 is less than 1000 nM.

Turning to `CN1C(C(=O)Nc2cc(F)c(F)c(F)c2)CC(c2cccs2)NS1(=O)=O` (racemic) [HBV-CSU-036, Cis-2-Methyl-5-(thiophen-2-yl)-N-(3,4,5-trifluorophenyl)-1,2,6-thiadiazinane-3-carboxamide 1,1-dioxide], the EC50 was less than 1000 nM.

Turning to `C#CCN1[C@H](C(=O)Nc2ccc(F)c(Cl)c2)C[C@H](c2nccs2)NS1(=O)=O` (relative stereo) [HBV-CSU-089-ISO-I, Cis-N-(3-chloro-4-fluorophenyl)-2-(prop-2-yn-1-yl)-5-(thiazol-2-yl)-1,2,6-thiadiazinane-3-carboxamide 1,1-dioxide], the EC50 is less than 1000 nM.

With `COc1ccc(-c2csc([C@@H]3C[C@H](C(=O)Nc4ccc(F)c(Cl)c4)N(C)S(=O)(=O)N3)c2)cc1` [HBV-CSU-241-ISO-II], the EC50 fell in the range of 1000 to 5000 nM.

As for `CN1C(C(=O)Nc2ccc(F)c(Cl)c2)CC(c2cc(-c3ccc(Br)c(F)c3)cs2)NS1(=O)=O` (racemic) [HBV-CSU-165, Cis-N-(3-chloro-4-fluorophenyl)-5-(4-(4-bromo-3-fluorophenyl)thiophen-2-yl)-2-methyl-1,2,6-thiadiazinane-3-carboxamide 1,1-dioxide], the EC50 was 1000 to 5000 nM.

Take `CN1[C@H](C(=O)Nc2ccc(F)c(Cl)c2)C[C@H](c2ccc(-c3cn[nH]c3)s2)NS1(=O)=O` [HBV-CSU-244-ISO-I]: the EC50 was less than 1000 nM.

In the case of `C#CCCN1C(C(=O)Nc2ccc(F)c(Cl)c2)CC(c2nccs2)NS1(=O)=O` (stereo not drawn) [HBV-CSU-090, Cis-2-(But-3-yn-1-yl)-N-(3-chloro-4-fluorophenyl)-5-(thiazol-2-yl)-1,2,6-thiadiazinane-3-carboxamide 1,1-dioxide], the EC50 is less than 1000 nM.

`CN1[C@H](C(=O)Nc2ccc(F)c(Cl)c2)C[C@H](c2ccc(C(F)(F)F)cc2)NS1(=O)=O` (stereo in doubt) [HBV-CSU-217-ISO-I, Cis-N-(3-Chloro-4-fluorophenyl)-2-methyl-5-(4-(trifluoromethyl)phenyl)-1,2,6-thiadiazinane-3-carboxamide 1,1-dioxide]: the EC50 was more than 5000 nM.

Regarding `Cc1cnc([C@@H]2C[C@H](C(=O)Nc3ccc(F)c(Cl)c3)N(C)S(=O)(=O)N2)s1`, the EC50 is more than 5000 nM.

Regarding `[2H]C([2H])([2H])N1C(C(=O)Nc2ccc(F)c(Cl)c2)CC(c2ccc(-c3cn(C([2H])([2H])[2H])cn3)s2)NS1(=O)=O` (stereo not shown) [HBV-CSU-374], the EC50 was less than 1000 nM.

For `CN1C(C(=O)Nc2ccc(F)c(Cl)c2)CC(c2ccc(F)c(F)c2)NS1(=O)=O` (racemic) [HBV-CSU-230, Cis-N-(3-Chloro-4-fluorophenyl)-5-(3,4-difluorophenyl)-2-methyl-1,2,6-thiadiazinane-3-carboxamide 1,1-dioxide], the EC50 was less than 1000 nM.

With `CN(C)CCCOc1ccc([C@H]2C[C@@H](C(=O)Nc3ccc(F)c(Cl)c3)N(C)S(=O)(=O)N2)cc1` [HBV-CSU-208-ISO-II, Cis-N-(3-chloro-4-fluorophenyl)-5-(4-(3-(dimethylamino)propoxy)phenyl)-2-methyl-1,2,6-thiadiazinane-3-carboxamide 1,1-dioxide], the EC50 is less than 1000 nM.

For the compound `CN1[C@@H](C(=O)Nc2ccc(F)c(Cl)c2)C[C@@H](c2ccc(F)cc2)NS1(=O)=O` [HBV-CSU-112-ISO-II, Cis-N-(3-Chloro-4-fluorophenyl)-5-(4-fluorophenyl)-2-methyl-1,2,6-thiadiazinane-3-carboxamide 1,1-dioxide], the EC50 is more than 5000 nM.

Consider `CN1[C@H](C(=O)Nc2ccc(F)c(Cl)c2)C[C@H](c2cc(-c3ccn(C)n3)cs2)NS1(=O)=O` [HBV-CSU-288-ISO-I, Cis-N-(3-Chloro-4-fluorophenyl)-2-methyl-5-(4-(1-methyl-1H-pyrazol-3-yl)thiophen-2-yl)-1,2,6-thiadiazinane-3-carboxamide 1,1-dioxide], for which the EC50 is less than 1000 nM.

On to `Cc1c(-c2ccc(C3CC(C(=O)Nc4ccc(F)c(Cl)c4)N(C)S(=O)(=O)N3)s2)cnn1C` (racemic) [HBV-CSU-312, Cis-N-(3-chloro-4-fluorophenyl)-5-(5-(1,5-dimethyl-1H-pyrazol-4-yl)thiophen-2-yl)-2-methyl-1,2,6-thiadiazinane-3-carboxamide 1,1-dioxide], for which the EC50 is less than 1000 nM.

Take `CN1[C@@H](C(=O)Nc2ccc(F)c(Cl)c2)C[C@@H](c2ccc(-c3cnn(C)c3)cc2)NS1(=O)=O` (relative stereo) [HBV-CSU-246-ISO-I, Cis-N-(3-Chloro-4-fluorophenyl)-2-methyl-5-(4-(1-methyl-1H-pyrazol-4-yl)phenyl)-1,2,6-thiadiazinane-3-carboxamide 1,1-dioxide]: the EC50 is more than 5000 nM.

With `C=CCN1[C@@H](C(=O)Nc2ccc(F)c(Cl)c2)C[C@@H](c2nccs2)NS1(=O)=O` [HBV-CSU-094-ISO-I, Cis-2-Allyl-N-(3-chloro-4-fluorophenyl)-5-(thiazol-2-yl)-1,2,6-thiadiazinane-3-carboxamide 1,1-dioxide], the EC50 was more than 5000 nM.

Turning to `CN1[C@@H](C(=O)Nc2ccc(F)c(Cl)c2)C[C@@H](c2ccc(-c3ccc(NS(C)(=O)=O)cc3)s2)NS1(=O)=O` (relative stereo) [HBV-CSU-163-ISO-II, Cis-N-(3-chloro-4-fluorophenyl)-2-methyl-5-(5-(4-(methylsulfonamido)phenyl)thiophen-2-yl)-1,2,6-thiadiazinane-3-carboxamide 1,1-dioxide], the EC50 is less than 1000 nM.

On to `CN1[C@H](C(=O)Nc2ccc(F)c(Cl)c2)C[C@@H](c2ccc(Br)s2)NS1(=O)=O` [HBV-CSU-114-Trans-ISO-II, (3S,5S)-5-(5-bromothiophen-2-yl)-N-(3-chloro-4-fluorophenyl)-2-methyl-1,2,6-thiadiazinane-3-carboxamide 1,1-dioxide], for which the EC50 fell in the range of 1000 to 5000 nM.

For the compound `CN1[C@H](C(=O)Nc2cccc(Cl)c2)C[C@H](c2cccs2)NS1(=O)=O` [HBV-CSU-010-ISO-I, Cis-N-(3-chlorophenyl)-2-methyl-5-(thiophen-2-yl)-1,2,6-thiadiazinane-3-carboxamide 1,1-dioxide], the 50% effective concentration (EC50) is less than 1000 nM.

With `CN1[C@H](C(=O)Nc2ccc(F)c(Cl)c2)C[C@@H](c2ccc(-c3cn(C)cn3)s2)NS1(=O)=O` [HBV-CSU-266-Trans-ISO-II, (3S,5S)-N-(3-chloro-4-fluorophenyl)-2-methyl-5-(5-(1-methyl-1H-imidazol-4-yl)thiophen-2-yl)-1,2,6-thiadiazinane-3-carboxamide 1,1-dioxide], the EC50 was 1000 to 5000 nM.

In the case of `CN1[C@H](C(=O)Nc2ccc(F)c(Cl)c2)C[C@H](c2cc(-c3ccccc3)cs2)NS1(=O)=O` [HBV-CSU-148-ISO-I, Cis-N-(3-chloro-4-fluorophenyl)-2-methyl-5-(4-phenylthiophen-2-yl)-1,2,6-thiadiazinane-3-carboxamide 1,1-dioxide], the EC50 was less than 1000 nM.

Turning to `CN1[C@@H](C(=O)Nc2ccc(F)c(Cl)c2)C[C@@H](c2ccc(-c3ccc(F)cc3)s2)NS1(=O)=O` [HBV-CSU-238-ISO-II], the concentration giving a half-maximal response (EC50) is 1000 to 5000 nM.

In the case of `CN1C(C(=O)Nc2ccc(F)c(Cl)c2)CC(c2ccc3ncsc3c2)NS1(=O)=O` (stereo not drawn) [HBV-CSU-273, Cis-5-(benzo[d]thiazol-6-yl)-N-(3-chloro-4-fluorophenyl)-2-methyl-1,2,6-thiadiazinane-3-carboxamide 1,1-dioxide], the EC50 is less than 1000 nM.

(Values after US11078170B2 (Assembly Biosciences, Inc., priority 2017, dated 2021).)
